{"source": "patent EP4741414A1", "about": "“PEPTIDE HAVING CELL MEMBRANE PERMEABILITY AND SCREENING METHOD THEREFOR” (priority 2023, dated 2025)", "key": {"[1]": {"system": "A549 cells", "test": "Intracellular delivery of Alexa 647-labeled IgG-peptide conjugates to A549 cells", "type": "cell-based", "conditions": "for cell-type-selective plasma membrane-penetrating activity: A549 cells versus macrophages, 1 µM, FIG. 16; for intracellularly delivered amount into A549 cells: final concentration 1 µM, uptake time 1 h, compared with T001, T006 conjugates, FIG. 15", "protocol": "Cells 1 hour after the addition of the protein solution were observed and photographed with an all-in-one fluorescence microscope BZ-X810 (Keyence Corporation) in the same manner as in Experimental Example 14 except that A549 cells cultured in the same manner as in Experimental Example 11 were used, followed by image analysis with software BZ-X800 Analyzer included therein. The uptake ratios of the proteins at an uptake time of 1 hour, which were each determined from the ratio of the brightness (integrated) of a red color to the brightness (integrated) of a blue color, were compared to each other. The results are shown in FIG. 15 (in the figure, the height of a bar represents the average of \"n\" values (n=2 to 3) and an error bar represents its standard deviation)."}, "[2]": {"system": "THP-1 macrophages", "test": "Intracellular delivery of Alexa 647-labeled IgG-peptide conjugates to THP-1 macrophages", "type": "cell-based", "conditions": "for intracellularly delivered amount into macrophages: final concentration 1 µM, compared with R001, R005 conjugates, FIG. 14; for intracellularly delivered amount into macrophages / intracellular delivery amount of IgG: uptake time 1 h; for intracellular delivery amount of IgG: final concentration 5 µM, versus IgG, FIG. 12, FIG. 13; for cell-type-selective plasma membrane-penetrating activity: macrophages versus A549 cells, 1 µM, FIG. 16", "text": "The reaction liquid was applied to a Zeba spin desalting column (7K MWCO) equilibrated with PBS, and an unreacted cross-linking agent was removed. Thus, an IgG fraction was recovered. The peptides (synthesized by Eurofins Genomics K.K., the amino acid sequences of the peptides that are each conjugated with the IgG are shown in the following table) obtained by the above-mentioned screening, the peptides each including an amino acid sequence and each having C at its N-terminal, were each dissolved in DMSO so that a 10 mM DMSO solution was obtained. The DMSO solution of the peptide whose molar amount was 5 times as large as that of the IgG was added to the recovered IgG fraction, and EDTA was further added to the mixture so that its final concentration was 1 mM, followed by stirring by inversion at 25°C for 1 hour. After that, a fivefold molar amount of cysteine was added to the mixture, and the whole was stirred by inversion at 25°C for 30 minutes. The reaction liquid was applied to a Zeba spin desalting column (7K MWCO) equilibrated with PBS, and the peptide and cysteine that were unreacted, and EDTA were removed. Thus, an IgG-peptide conjugate was recovered.\nThe assay was conducted using THP-1 macrophages, which had been seeded in a 96-well plate at 20,000 cells/well, and had already been activated with PMA, IFN γ, and LPS. […] Images acquired with the all-in-one fluorescence microscope BZ-X810 (Keyence Corporation) were analyzed using the accompanying software BZ-X800 Analyzer. The uptake ratio at an uptake time of 1 h was compared based on the ratio of integrated red fluorescence intensity to integrated blue fluorescence intensity.\nThe uptake ratios of the proteins at an uptake time of 1 hour, which were each determined from the ratio of the brightness (integrated) of a red color to the brightness (integrated) of a blue color, were compared to each other."}, "[3]": {"system": "three-dimensional skin model EpiDerm Full Thickness 400", "procedure": "A three-dimensional skin model EpiDerm Full Thickness 400 was prepared in accordance with the manual of its manufacturer in the same manner as in Experimental Example 8. […] As a control, the known cell-penetrating peptide TAT (the sequence obtained by removing C at the N-terminal from the amino acid sequence shown in SEQ ID NO: 51) was used, and the N-terminal side thereof was modified with FAM (similarly synthesized by Eurofins Genomics K.K., theoretical molecular weight: 1,979.2).\n100 Microliters of a 1% DMSO-containing PBS solution of each of the FAM-modified peptides was added to a central portion on the donor side of a cup in which the skin model was built to initiate the penetrability assay (n=3). After incubation at 37 °C under 5% CO2 for 24 h, the medium outside the cup was collected, and the concentration of peptide that penetrated the skin model was quantified fluorometrically using a microplate reader (TECAN Spark; excitation wavelength: 494 nm, emission wavelength: 521 nm)."}}, "note": "Primed or numbered codes have the meaning given here. No end group written: not given here. PEG8′ = PEG8 linker (eight-unit polyethylene glycol spacer); FAM = fluorescein amidite"}
{"substance": "CGGSRVVSYLAEYH [R005]", "values": [{"measurement": "cell-type-selective plasma membrane-penetrating activity", "setting": "[1]", "result": "cell-type-selective plasma membrane-penetrating activity in A549 cells"}, {"measurement": "intracellularly delivered amount into A549 cells", "setting": "[1]", "result": "greater increase in the intracellularly delivered amount into A549 cells"}]}
{"substance": "CRYYAHWLHYM [T006]", "values": [{"measurement": "intracellularly delivered amount into macrophages", "setting": "[2]", "result": "greater increase in the intracellularly delivered amount into macrophages"}, {"measurement": "intracellular delivery amount of IgG", "setting": "[2]", "result": "increased the intracellular delivery amount of IgG"}, {"measurement": "cell-type-selective plasma membrane-penetrating activity", "setting": "[2]", "result": "cell-type-selective plasma membrane-penetrating activity in macrophages"}]}
{"substance": "FAM-labeled SEQ ID NO: 40 peptide: N-terminal side of the peptide represented by SEQ ID NO: 40 modified with fluorescein amidite (FAM) through a PEG8 linker ({FAM-PEG8′}-RWNCVSCAFL; cysteine pairing not given here)", "values": [{"measurement": "penetrability (ratio of penetrated amount outside the cup to added amount)", "setting": "[3]", "result": "49.8±10.0", "unit": "%"}]}
{"substance": "CLFKAWLGVYH [R001]", "values": [{"measurement": "cell-type-selective plasma membrane-penetrating activity", "setting": "[1]", "result": "cell-type-selective plasma membrane-penetrating activity in A549 cells"}, {"measurement": "intracellularly delivered amount into A549 cells", "setting": "[1]", "result": "greater increase in the intracellularly delivered amount into A549 cells"}]}
{"substance": "CRWPLWMWFVW [T001]", "values": [{"measurement": "intracellularly delivered amount into macrophages", "setting": "[2]", "result": "greater increase in the intracellularly delivered amount into macrophages"}, {"measurement": "intracellular delivery amount of IgG", "setting": "[2]", "result": "increased the intracellular delivery amount of IgG"}, {"measurement": "cell-type-selective plasma membrane-penetrating activity", "setting": "[2]", "result": "cell-type-selective plasma membrane-penetrating activity in macrophages"}]}
{"substance": "CYGRKKRRQRRR (CYGRKKRRQRRR-NH2; also: conjugated to Alexa 647-IgG via maleimide-PEG2-NHS) [TAT, Alexa 647-labeled IgG bonded with known membrane-permeable peptide TAT via Maleimide-PEG2-NHS Ester, reference compound]", "values": [{"measurement": "intracellular delivery amount of IgG", "setting": "[2]", "result": "no increase in cellular translocation was observed"}]}
{"substance": "CGKEGGSRWLIFHYMLLGG [T005]", "values": [{"measurement": "intracellular delivery amount of IgG", "setting": "[2]", "result": "increased the intracellular delivery amount of IgG"}]}
